Data reported in US20180273564A1, “CARBON MONOXIDE RELEASING MOLECULES” (AUCKLAND UNISERVICES LIMITED, priority 2015, published 2018).
Several values for one entry are separate records, joined by “and”; a condition that tells them apart may be missing. Equal values may be shown once. Entries after “also recorded” stand apart in the source; their conditions may differ.

Columns and labels:
[1] = system: cancer cell lines (HCT116, NCI-H460, SiHa); assay: In vitro anticancer activity, statements over all cell lines tested; settings: 72 h compound exposure
Procedure: (§1) HCT116 (colon cancer cells) and NCI-H460 (large cell lung carcinoma) cells were supplied by ATCC, while SiHa cells (cervical cancer) were supplied by Dr. David Cowan, Ontario Cancer Institute, Canada. Cells were maintained in αMEM (Life Technologies) with 5% FCS (fetal calf serum from Moregate Biotech) at 37° C. in a humidified incubator with 5% CO2. Cells were seeded at the appropriate density and allowed to settle for 24 hours, before the compounds (in 0.5% DMSO at the highest concentration) were added at 3-fold serial dilutions. After 72 h compound exposure, the cells were fixed with 10% TCA (trichloroacetic acid from Merck Millipore) for 1 h at 4° C., then washed before addition of 50 μl of 0.4% sulforhodamine B solution (Sigma Aldrich) for 30 min at room temperature in the dark. After washing with 1% acetic acid, the aminoxanthene dye was solubilised with 100 μl/well unbuffered Tris base (10 mM; Serva) on an orbital shaker for at least 30 min in the dark. The optical density was measured on a BioTek EL808 microplate reader at an absorbance of 490 and 450 nm (reference wavelength) and was used to determine the percentage of cell-growth inhibition. IC50 values were calculated with SigmaPlot12.5 using a three-parameter logistic sigmoidal dose-response curve between the calculated growth inhibition and the compound concentration.

[2] = system: HCT116 (colon cancer cells); assay: In vitro anticancer activity, sulforhodamine B assay; assay type: cell-based; settings: HCT116, 72 h compound exposure, mean of 3 independent experiments
Procedure: as §1

[3] = system: NCI-H460 (large cell lung carcinoma) cells; assay: as above; assay type: cell-based; settings: NCI-H460, 72 h compound exposure, mean of 3 independent experiments
Procedure: as §1

[4] = system: SiHa cells (cervical cancer); assay: as above; assay type: cell-based; settings: 72 h compound exposure, mean of 3 independent experiments
Procedure: as §1

| Structure (SMILES) | Solubility in water (Solubility in water) [mM] | cytotoxicity to cancer cell lines [1] | IC50 [2] | IC50 [3] [µM] | IC50 [4] [µM] | solubility (Solubility in water; water) [mM] | IC50 ([2]; Homo sapiens, HCT-116) [µM] | IC50 ([3]; Homo sapiens) [µM] | IC50 ([4]; Homo sapiens) [µM] |
| --- | --- | --- | --- | --- | --- | --- | --- | --- | --- |
| O=C(Nc1cc[n+](Cc2ccccc2)cc1)c1ccccn1.[C-]#[O+].[C-]#[O+].[C-]#[O+].[Cl][Ru-]([Cl])[Cl] [Compound 1, [HL][Ru(CO)3Cl3]] | 1.45 | most active compound in all cancer cell lines tested; also recorded: moderately cytotoxic | 24 µM | 73 | 26 | – | – | – | – |
| CC[N+](CC)(CC)CC.[C-]#[O+].[C-]#[O+].[C-]#[O+].[Cl-].[Cl-].[Cl-].[Ru+2] [Compound 2, [Et4N][Ru(CO)3Cl3]] | 6.78 | non-cytotoxic in the investigated concentration range; also recorded: not active against any of the cancer cell lines | > 1600 µM | > 1600 | > 1600 | – | – | – | – |
| Cl.O=C(Nc1cc[n+](Cc2ccccc2)cc1)c1ccccn1 [[HL]Cl, 1-Benzyl-4-(picolinamido)pyridinium chloride] | – | – | – | – | – | 12.3 | 20 | 54 | 30 |
| O=C(N=c1ccn(Cc2ccccc2)cc1)c1ccccn1.[C-]#[O+].[C-]#[O+].[C-]#[O+].[C-]#[O+].[C-]#[O+].[C-]#[O+].[Cl][Ru+].[Cl][Ru-]([Cl])[Cl] [pH-CORM-1, [Ru(CO)3Cl(L)][Ru(CO)3Cl3]] | 1.56 | moderately cytotoxic | ≤ 119 µM and 119 µM | 164 | 148 | – | – | – | – |
